Results published in US20100298141A1, “SUBSTITUTED PYRIDINE N-OXIDE HERBICIDES” (E. I. DU PONT DE NEMOURS AND COMPANY, priority 2007, published 2010).

Columns and labels:
barnyardgrass [1] = assay: Test C flooded paddy test; assay type: in vivo, Echinochloa crus-galli; details: Flood
Method in brief: (§1)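 Greenhouse pots flooded to 3 cm above soil at time of treatment received compound via the water, which stayed at that level.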

duck salad = assay: Test C flooded paddy test; assay type: in vivo, Heteranthera limosa; details: Flood
Method in brief: as §1

crabgrass = assay: Test A pre-/postemergence greenhouse test; assay type: in vivo, Digitaria sanguinalis; details: for Plant response rating, Crabgrass, Large: 0 to 100 scale where 0 is no effect and 100 is complete control; for Crabgrass, Large plant response rating: 0 to 100 scale
Method in brief: (§2)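 Untreated controls served as the reference for visual injury ratings taken about ten days after spraying. The non-phytotoxic solvent/surfactant formulation was applied preemergence to seeded loam and sand and postemergence to plants two to ten cm high.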

morningglory = assay: Test A pre-/postemergence greenhouse test; assay type: in vivo, Ipomoea spp.; details: for Plant response rating, Morningglory: 0 to 100 scale where 0 is no effect and 100 is complete control; for Morningglory plant response rating: 0 to 100 scale
Method in brief: as §2

rice = assay: Test C flooded paddy test; assay type: in vivo, Oryza sativa; details: Flood
Method in brief: as §1

giant foxtail = assay: Test A pre-/postemergence greenhouse test; assay type: in vivo, Setaria faberi; details: for Plant response rating, Foxtail, Giant: 0 to 100 scale where 0 is no effect and 100 is complete control; for Foxtail, Giant plant response rating: 0 to 100 scale
Method in brief: as §2

wheat = assay: Test A pre-/postemergence greenhouse test; assay type: in vivo, Triticum aestivum; details: for Plant response rating, Wheat: 0 to 100 scale where 0 is no effect and 100 is complete control; for Wheat plant response rating: 0 to 100 scale
Method in brief: as §2

umbrella sedge = assay: Test C flooded paddy test; assay type: in vivo, Cyperus difformis; details: Flood
Method in brief: as §1

velvetleaf = assay: Test A pre-/postemergence greenhouse test; assay type: in vivo, Abutilon theophrasti; details: for Plant response rating, Velvetleaf: 0 to 100 scale where 0 is no effect and 100 is complete control; for Velvetleaf plant response rating: 0 to 100 scale
Method in brief: as §2

barnyardgrass [2] = assay: Test A pre-/postemergence greenhouse test; assay type: in vivo, Echinochloa crus-galli; details: for Plant response rating, Barnyardgrass: 0 to 100 scale where 0 is no effect and 100 is complete control; for Barnyardgrass plant response rating: 0 to 100 scale
Method in brief: as §2

redroot pigweed = assay: Test A pre-/postemergence greenhouse test; assay type: in vivo, Amaranthus retroflexus; details: for Plant response rating, Pigweed: 0 to 100 scale where 0 is no effect and 100 is complete control; for Pigweed plant response rating: 0 to 100 scale
Method in brief: as §2

corn = assay: Test A pre-/postemergence greenhouse test; assay type: in vivo, Zea mays; details: for Plant response rating, Corn: 0 to 100 scale where 0 is no effect and 100 is complete control; for Corn plant response rating: 0 to 100 scale
Method in brief: as §2

[3] = 62 g ai/ha, scale 0 to 100 (0 no effect, 100 complete control)
[4] = 250 g ai/ha, scale 0 to 100, 0 no effect, 100 complete control, 13 to 15 days
[5] = Postemergence, 500 g ai/ha, 0 is no effect, 100 is complete control
[6] = Preemergence, 125 g ai/ha, 0 no effect, 100 complete control
[7] = Preemergence, 500 g ai/ha, 0 no effect, 100 complete control
[8] = 31 g ai/ha, scale 0 to 100 (0 no effect, 100 complete control)
[9] = 62 g ai/ha, scale 0 to 100, 0 no effect, 100 complete control, 13 to 15 days
[10] = 125 g ai/ha, scale 0 to 100, 0 no effect, 100 complete control, 13 to 15 days
[11] = Postemergence, 125 g ai/ha, 0 is no effect, 100 is complete control

Cc1cc[n+]([O-])c([S+]([O-])Cc2c(C(F)(F)F)nn(C)c2OCC(F)F)c1 (stereo not shown) [Compound 86]
90: Crabgrass, Large plant response rating (crabgrass; [5]) | Morningglory plant response rating (morningglory; [5]) | Plant response rating, Morningglory (morningglory; Preemergence, 500 g ai/ha) | Foxtail, Giant plant response rating (giant foxtail; [5]) | Foxtail, Giant plant response rating (giant foxtail; [6]) | Wheat plant response rating (wheat; [7]) | Barnyardgrass plant response rating (barnyardgrass [2]; [5]) | Pigweed plant response rating (redroot pigweed; [5]) | Pigweed plant response rating (redroot pigweed; [6])
100: Plant response rating, Ducksalad (duck salad; [4]) | Plant response rating, Crabgrass, Large (crabgrass; Preemergence, 500 g ai/ha) | Plant response rating, Foxtail, Giant (giant foxtail; Preemergence, 500 g ai/ha) | Plant response rating, Barnyardgrass (barnyardgrass [2]; Preemergence, 500 g ai/ha) | Plant response rating, Pigweed (redroot pigweed; Preemergence, 500 g ai/ha)
60: Plant response rating, Morningglory (morningglory; Postemergence, 125 g ai/ha) | Plant response rating, Pigweed (redroot pigweed; Postemergence, 125 g ai/ha)
70: Crabgrass, Large plant response rating (crabgrass; [6]) | Wheat plant response rating (wheat; [5]) | Wheat plant response rating (wheat; [6]) | Velvetleaf plant response rating (velvetleaf; [5]) | Plant response rating, Barnyardgrass (barnyardgrass [2]; Postemergence, 125 g ai/ha) | Barnyardgrass plant response rating (barnyardgrass [2]; [6])
0: Plant response rating, Barnyardgrass (barnyardgrass [1]; [3]) | Plant response rating, Barnyardgrass (barnyardgrass [1]; [4]) | Plant response rating, Rice (rice; [3]) | Plant response rating, Rice (rice; [4]) | Plant response rating, Corn (corn; Postemergence, 125 g ai/ha)
10: Velvetleaf plant response rating (velvetleaf; [6])
20: Corn plant response rating (corn; [6])
80: Plant response rating, Foxtail, Giant (giant foxtail; Postemergence, 125 g ai/ha) | Velvetleaf plant response rating (velvetleaf; [7]) | Corn plant response rating (corn; [5])
95: Plant response rating, Sedge, Umbrella (umbrella sedge; [4])
50: Plant response rating, Crabgrass, Large (crabgrass; Postemergence, 125 g ai/ha) | Morningglory plant response rating (morningglory; [6]) | Plant response rating, Wheat (wheat; Postemergence, 125 g ai/ha) | Plant response rating, Velvetleaf (velvetleaf; Postemergence, 125 g ai/ha) | Plant response rating, Corn (corn; Preemergence, 500 g ai/ha)
45: Plant response rating, Sedge, Umbrella (umbrella sedge; [3])
65: Plant response rating, Ducksalad (duck salad; [3])

Cn1nc(C(F)(F)F)c(C[S+]([O-])c2ccc(Cl)c[n+]2[O-])c1OCC(F)(F)C(F)(F)F (stereo not shown) [Compound 89]
80: Plant response rating, Foxtail, Giant (giant foxtail; Postemergence, 125 g ai/ha) | Foxtail, Giant plant response rating (giant foxtail; [6]) | Velvetleaf plant response rating (velvetleaf; [5]) | Pigweed plant response rating (redroot pigweed; [6]) | Corn plant response rating (corn; [5])
30: Wheat plant response rating (wheat; [6]) | Plant response rating, Velvetleaf (velvetleaf; Postemergence, 125 g ai/ha) | Corn plant response rating (corn; [6])
70: Wheat plant response rating (wheat; [5]) | Plant response rating, Barnyardgrass (barnyardgrass [2]; Postemergence, 125 g ai/ha)
100: Plant response rating, Ducksalad (duck salad; [4]) | Plant response rating, Foxtail, Giant (giant foxtail; Preemergence, 500 g ai/ha) | Plant response rating, Sedge, Umbrella (umbrella sedge; [4]) | Velvetleaf plant response rating (velvetleaf; [7]) | Plant response rating, Barnyardgrass (barnyardgrass [2]; Preemergence, 500 g ai/ha) | Pigweed plant response rating (redroot pigweed; [5]) | Plant response rating, Pigweed (redroot pigweed; Preemergence, 500 g ai/ha)
0: Plant response rating, Barnyardgrass (barnyardgrass [1]; [3]) | Plant response rating, Rice (rice; [3]) | Plant response rating, Sedge, Umbrella (umbrella sedge; [3])
10: Velvetleaf plant response rating (velvetleaf; [6])
90: Plant response rating, Barnyardgrass (barnyardgrass [1]; [4]) | Crabgrass, Large plant response rating (crabgrass; [5]) | Crabgrass, Large plant response rating (crabgrass; [6]) | Plant response rating, Crabgrass, Large (crabgrass; Preemergence, 500 g ai/ha) | Morningglory plant response rating (morningglory; [5]) | Plant response rating, Morningglory (morningglory; Preemergence, 500 g ai/ha) | Foxtail, Giant plant response rating (giant foxtail; [5]) | Wheat plant response rating (wheat; [7]) | Barnyardgrass plant response rating (barnyardgrass [2]; [5]) | Plant response rating, Corn (corn; Preemergence, 500 g ai/ha)
40: Plant response rating, Ducksalad (duck salad; [3]) | Plant response rating, Morningglory (morningglory; Postemergence, 125 g ai/ha) | Barnyardgrass plant response rating (barnyardgrass [2]; [6])
60: Plant response rating, Rice (rice; [4]) | Plant response rating, Wheat (wheat; Postemergence, 125 g ai/ha)
50: Plant response rating, Crabgrass, Large (crabgrass; Postemergence, 125 g ai/ha) | Plant response rating, Pigweed (redroot pigweed; Postemergence, 125 g ai/ha) | Plant response rating, Corn (corn; Postemergence, 125 g ai/ha)

Cn1nc(C(F)(F)F)c(CS(=O)(=O)c2cc(Cl)cc[n+]2[O-])c1Cl [Compound 38]
30: Plant response rating, Foxtail, Giant (giant foxtail; Preemergence, 500 g ai/ha) | Barnyardgrass plant response rating (barnyardgrass [2]; [6])
60: Plant response rating, Barnyardgrass (barnyardgrass [2]; Preemergence, 500 g ai/ha)
0: Plant response rating, Barnyardgrass (barnyardgrass [1]; [8]) | Plant response rating, Barnyardgrass (barnyardgrass [1]; [9]) | Plant response rating, Barnyardgrass (barnyardgrass [1]; [10]) | Plant response rating, Barnyardgrass (barnyardgrass [1]; [4]) | Plant response rating, Ducksalad (duck salad; [8]) | Plant response rating, Ducksalad (duck salad; [9]) | Plant response rating, Ducksalad (duck salad; [10]) | Plant response rating, Ducksalad (duck salad; [4]) | Crabgrass, Large plant response rating (crabgrass; [11]) | Crabgrass, Large plant response rating (crabgrass; [5]) | Crabgrass, Large plant response rating (crabgrass; [6]) | Plant response rating, Crabgrass, Large (crabgrass; Preemergence, 500 g ai/ha) | Morningglory plant response rating (morningglory; [11]) | Morningglory plant response rating (morningglory; [5]) | Morningglory plant response rating (morningglory; [6]) | Plant response rating, Morningglory (morningglory; Preemergence, 500 g ai/ha) | Plant response rating, Rice (rice; [8]) | Plant response rating, Rice (rice; [9]) | Plant response rating, Rice (rice; [10]) | Plant response rating, Rice (rice; [4]) | Foxtail, Giant plant response rating (giant foxtail; [11]) | Foxtail, Giant plant response rating (giant foxtail; [5]) | Foxtail, Giant plant response rating (giant foxtail; [6]) | Wheat plant response rating (wheat; [11]) | Wheat plant response rating (wheat; [5]) | Wheat plant response rating (wheat; [6]) | Plant response rating, Wheat (wheat; Preemergence, 500 g ai/ha) | Plant response rating, Sedge, Umbrella (umbrella sedge; [8]) | Plant response rating, Sedge, Umbrella (umbrella sedge; [9]) | Plant response rating, Sedge, Umbrella (umbrella sedge; [10]) | Plant response rating, Sedge, Umbrella (umbrella sedge; [4]) | Velvetleaf plant response rating (velvetleaf; [11]) | Velvetleaf plant response rating (velvetleaf; [5]) | Velvetleaf plant response rating (velvetleaf; [6]) | Plant response rating, Velvetleaf (velvetleaf; Preemergence, 500 g ai/ha) | Barnyardgrass plant response rating (barnyardgrass [2]; [11]) | Barnyardgrass plant response rating (barnyardgrass [2]; [5]) | Pigweed plant response rating (redroot pigweed; [11]) | Pigweed plant response rating (redroot pigweed; [5]) | Pigweed plant response rating (redroot pigweed; [6]) | Plant response rating, Pigweed (redroot pigweed; Preemergence, 500 g ai/ha) | Corn plant response rating (corn; [11]) | Corn plant response rating (corn; [5]) | Corn plant response rating (corn; [6]) | Plant response rating, Corn (corn; Preemergence, 500 g ai/ha)

Cc1ccc[n+]([O-])c1[S+]([O-])Cc1c(C(F)(F)F)nn(C)c1OC(F)F (stereo not shown) [Compound 112]
80: Crabgrass, Large plant response rating (crabgrass; [5]) | Foxtail, Giant plant response rating (giant foxtail; [5]) | Foxtail, Giant plant response rating (giant foxtail; [6]) | Barnyardgrass plant response rating (barnyardgrass [2]; [5])
15: Plant response rating, Barnyardgrass (barnyardgrass [1]; [10]) | Plant response rating, Rice (rice; [4])
45: Plant response rating, Barnyardgrass (barnyardgrass [1]; [4])
60: Morningglory plant response rating (morningglory; [6]) | Wheat plant response rating (wheat; [5]) | Velvetleaf plant response rating (velvetleaf; [7]) | Barnyardgrass plant response rating (barnyardgrass [2]; [6]) | Pigweed plant response rating (redroot pigweed; [5]) | Corn plant response rating (corn; [5])
30: Plant response rating, Sedge, Umbrella (umbrella sedge; [3])
100: Foxtail, Giant plant response rating (giant foxtail; [7])
50: Plant response rating, Ducksalad (duck salad; [4]) | Plant response rating, Wheat (wheat; Postemergence, 125 g ai/ha) | Plant response rating, Velvetleaf (velvetleaf; Postemergence, 125 g ai/ha) | Plant response rating, Corn (corn; Postemergence, 125 g ai/ha)
95: Plant response rating, Sedge, Umbrella (umbrella sedge; [4])
20: Plant response rating, Ducksalad (duck salad; [10])
75: Plant response rating, Sedge, Umbrella (umbrella sedge; [10])
10: Velvetleaf plant response rating (velvetleaf; [6]) | Pigweed plant response rating (redroot pigweed; [6])
90: Crabgrass, Large plant response rating (crabgrass; [7]) | Morningglory plant response rating (morningglory; [5]) | Morningglory plant response rating (morningglory; [7]) | Barnyardgrass plant response rating (barnyardgrass [2]; [7]) | Pigweed plant response rating (redroot pigweed; [7])
40: Wheat plant response rating (wheat; [6]) | Plant response rating, Pigweed (redroot pigweed; Postemergence, 125 g ai/ha) | Corn plant response rating (corn; [6])
70: Plant response rating, Crabgrass, Large (crabgrass; Postemergence, 125 g ai/ha) | Crabgrass, Large plant response rating (crabgrass; [6]) | Plant response rating, Morningglory (morningglory; Postemergence, 125 g ai/ha) | Plant response rating, Foxtail, Giant (giant foxtail; Postemergence, 125 g ai/ha) | Wheat plant response rating (wheat; [7]) | Velvetleaf plant response rating (velvetleaf; [5]) | Plant response rating, Barnyardgrass (barnyardgrass [2]; Postemergence, 125 g ai/ha) | Corn plant response rating (corn; [7])
0: Plant response rating, Barnyardgrass (barnyardgrass [1]; [8]) | Plant response rating, Barnyardgrass (barnyardgrass [1]; [3]) | Plant response rating, Ducksalad (duck salad; [8]) | Plant response rating, Ducksalad (duck salad; [3]) | Plant response rating, Rice (rice; [8]) | Plant response rating, Rice (rice; [3]) | Plant response rating, Rice (rice; [10]) | Plant response rating, Sedge, Umbrella (umbrella sedge; [8])
